Patent publication US7714034B2, “Photopolymerizable dental materials with bisacylphosphine oxides as initiators” (Ivoclar Vivadent AG, priority 2006, dated 2010)

Assay: solubility of the photoinitiator
Format: physicochemical
Excerpt: The bisacylphosphine oxides of the formula (I) absorb in the UV region and also show an absorption greater than 400 nm, so that their photolysis and radical formation can be induced by irradiation with halogen lamps customary in the dental field or also with LED lamps. The bisacylphosphine oxides of the formula (I) contain polymerizable groups and can be incorporated into polymers e.g. by copolymerization. Moreover, the bisacylphosphine oxides according to the invention are very well soluble in polar organic solvents such as acetone, ethanol, acetonitrile or tetrahydrofuran (THF) or their mixtures with water, i.e. the solubility is at least 0.01 mmol/g. It is particularly advantageous that the bisacylphosphine oxides according to the invention show a better storage stability compared with known bisacrylphosphine oxides. The compounds are characterized by a high hydrolysis stability, i.e. they are not more than 15% hydrolyzed in a mixture of […]:H2O (60:40) at 42° C. in 60 days.
To prepare the model formulation, 0.022 mmol of the photoinitiator described in Example 1 were weighed into an analysis tube and made up to 1.00 g with the above composition and dissolved accompanied by slight heating. […]

| solubility compared with Irgacure 819 | Compound | maximum solubility (in the primer composition (DEBAMP/DHPAE/water)) |
| --- | --- | --- |
| better solubility | C=CCOCCOCc1c(C)cc(C)c(C(=O)P(=O)(C(=O)c2c(C)cc(C)c(COCCOCC=C)c2C)c2ccccc2)c1C [BAPOmAOEM] |  |
|  | Cc1cc(C)c(C(=O)P(=O)(C(=O)c2c(C)cc(C)cc2C)c2ccccc2)c(C)c1 [Irgacure819, bis-(2,4,6-trimethylbenzoyl)-phenylphosphine oxide] | ^5Irgacure 819 was used due to its low solubility in a concentration of 0.005 mmol/g (= maximum solubility) |
